System: EpidermFT™ Skin Model (EFT-400) full thickness skin cultures
Experiment: Affymetrix GeneChip HG U133 Plus 2.0 microarray global gene expression, agent-exposed vs untreated skin cultures
Format: cell-based, human
Conditions: Salicin 0.5% vs Untreated Control, 24 hr treatment

OCc1ccccc1O[C@@H]1O[C@H](CO)[C@@H](O)[C@H](O)[C@H]1O [Salicin, 2-(Hydroxymethyl)phenyl β-D-glucospyranoside]
up: Direction ABHD2 (221815_at) | Direction ABHD2 (225337_at) | Direction ADAMTS5 (235368_at) | Direction ADAMTS6 (1570351_at) | Direction ADCYAP1 (230237_at) | Direction AHI1 (220841_s_at) | Direction AHI1 (221569_at) | Direction AKR1C1 (1562102_at) | Direction AKT3 (212607_at) | Direction AKT3 (212609_s_at) | Direction AKT3 (222880_at) | Direction AKT3 (224229_s_at) | Direction ALG9 (228817_at) | Direction ANKRD28 (213035_at) | Direction ANKRD28 (229307_at) | Direction ARMC8 (1555281_x_at) | Direction ARNT2 (202986_at) | Direction ATF3 (1554980_a_at) | Direction ATP2A3 (207522_s_at) | Direction BAG2 (209406_at) | Direction BCL2L11 (1558143_a_at) | Direction BNC2 (220272_at) | Direction BNC2 (235723_at) | Direction C1GALT1C1 (238989_at) | Direction C1orf67 /// DNAH14 (242283_at) | Direction C13orf33 (227058_at) | Direction CABLES1 (225532_at) | Direction CARD16 (1552701_a_at) | Direction CCR1 (205098_at) | Direction CDCP1 (1554110_at) | Direction CDR2 (209501_at) | Direction CHST2 (203921_at) | Direction CLGN (205830_at) | Direction CNOT3 (203239_s_at) | Direction CPM (241765_at) | Direction CPM (243403_x_at) | Direction CREM (207630_s_at) | Direction CUL4B (202213_s_at) | Direction CXCL1 (204470_at) | Direction CYP7B1 (207386_at) | Direction CYR61 (210764_s_at) | Direction DENND3 (212975_at) | Direction DENND5B (228551_at) | Direction DGKI (206806_at) | Direction DNAJB9 (202842_s_at) | Direction DNAJB9 (1554462_a_at) | Direction DNAJC10 (221781_s_at) | Direction DNAJC10 (221782_at) | Direction DOCK4 (205003_at) | Direction DOCK5 (230206_at) | Direction DOCK5 (230263_s_at) | Direction DOK6 (236290_at) | Direction DSEL (232825_s_at) | Direction DUSP4 (204015_s_at) | Direction DZIP1 (204557_s_at) | Direction EIF2AK3 (218696_at) | Direction ELL2 (214446_at) | Direction ELTD1 (219134_at) | Direction ENPP1 (205066_s_at) | Direction ENTPD7 (220153_at) | Direction EPS8 (202609_at) | Direction EREG (205767_at) | Direction ERO1LB (220012_at) | Direction FADS1 (208963_x_at) | Direction FADS1 (208964_s_at) | Direction FAM20A (226804_at) | Direction FAM107B (223058_at) | Direction FAM107B (223059_s_at) | Direction FAR2 (220615_s_at) | Direction FAT4 (219427_at) | Direction FEM1B (212374_at) | Direction FGF7 (1555103_s_at) | Direction FGF7 /// KGFLP1 /// KGFLP2 (1554741_s_at) | Direction FHOD3 (218980_at) | Direction FKBP11 (219117_s_at) | Direction FKBP11 (219118_at) | Direction FMN2 (1555471_a_at) | Direction FN1 (214701_s_at) | Direction FN1 (214702_at) | Direction FOXJ3 (217310_s_at) | Direction FPR1 (205119_s_at) | Direction GAS1 (204457_s_at) | Direction GCLM (203925_at) | Direction GCLM (236140_at) | Direction GEM (204472_at) | Direction GFPT1 (226886_at) | Direction GFPT2 (205100_at) | Direction GLIPR1 (204222_s_at) | Direction GRAMD1A (224807_at) | Direction GRAMD1B (212906_at) | Direction GUCY1A3 (221942_s_at) | Direction GUCY1A3 (229530_at) | Direction HERC3 (1554290_at) | Direction HEY1 (44783_s_at) | Direction HIST1H2AB /// HIST1H2AE (214469_at) | Direction HIST1H2AD /// HIST1H3A /// HIST1H3B /// HIST1H3C /// HIST1H3D /// HIST1H3E /// HIST1H3F /// HIST1H3G /// HIST1H3H /// HIST1H3I /// HIST1H3J (214472_at) | Direction HIST2H2AA3 /// HIST2H2AA4 (214290_s_at) | Direction HK2 (222305_at) | Direction HOXB2 (205453_at) | Direction HSD17B2 (204818_at) | Direction HSPA13 (202557_at) | Direction ID2 /// ID2B (213931_at) | Direction IGFBP5 (211958_at) | Direction ING1 (209808_x_at) | Direction IRAK2 (231779_at) | Direction IRAK3 (220034_at) | Direction ITPRIP (225582_at) | Direction JHDM1D (225142_at) | Direction KCNA3 (207237_at) | Direction KCNE4 (222379_at) | Direction KCNE4 (1552508_at) | Direction KCNJ8 (205303_at) | Direction KCNJ8 (205304_s_at) | Direction KLF15 (231015_at) | Direction KLHL29 (229310_at) | Direction LCP1 (208885_at) | Direction LOC285628 (232504_at) | Direction LOC440028 (1562606_a_at) | Direction LOC729222 /// PPFIBP1 (214375_at) | Direction LOC100128821 /// ZEB2 (235593_at) | Direction LOC100132244 (229438_at) | Direction LPAR1 (204036_at) | Direction LPAR1 (204037_at) | Direction LPAR1 (204038_s_at) | Direction LPPR4 (213496_at) | Direction LRCH2 (227688_at) | Direction LRRK2 (229584_at) | Direction MAGEA4 (214254_at) | Direction MAP3K4 (216199_s_at) | Direction MAP3K5 (203836_s_at) | Direction MAP9 (220145_at) | Direction MASP1 (232224_at) | Direction MASP1 (235770_at) | Direction MESDC1 (223264_at) | Direction MGST1 (239001_at) | Direction MMD (203414_at) | Direction MTHFD2L (220346_at) | Direction MYO3B (1552578_a_at) | Direction NAMPT (217738_at) | Direction NEGR1 (1553194_at) | Direction NEXN (226103_at) | Direction NFKB2 (207535_s_at) | Direction NFKBIZ (223217_s_at) | Direction NOVA1 (205794_s_at) | Direction NR4A1 (202340_x_at) | Direction NRP2 (228699_at) | Direction OLAH (222945_x_at) | Direction PAPPA (201981_at) | Direction PAPPA (224940_s_at) | Direction PAPPA (224941_at) | Direction PAPPA (228128_x_at) | Direction PAPPA (1559400_s_at) | Direction PCDH7 (210941_at) | Direction PCSK1 (205825_at) | Direction PDE4D (211840_s_at) | Direction PEG10 (212092_at) | Direction PF4 (206390_x_at) | Direction PGM2L1 (229256_at) | Direction PHLDA1 (217996_at) | Direction PHTF1 (215285_s_at) | Direction PI15 (229947_at) | Direction PID1 (219093_at) | Direction PID1 (237867_s_at) | Direction PISD (202392_s_at) | Direction PITPNC1 (238649_at) | Direction PLAUR (211924_s_at) | Direction PLEKHA3 (223370_at) | Direction PTGER4 (204897_at) | Direction PTGES (207388_s_at) | Direction PTGES (210367_s_at) | Direction PTGS1 (205128_x_at) | Direction PTGS1 (215813_s_at) | Direction PTHLH (206300_s_at) | Direction PTHLH (211756_at) | Direction PTPRG (204944_at) | Direction QKI (228540_at) | Direction RAB3B (205924_at) | Direction RAB3B (227123_at) | Direction RAB23 (220955_x_at) | Direction RABGGTB (209180_at) | Direction RABGGTB (213704_at) | Direction RAI14 (202052_s_at) | Direction RASSF8 (235996_at) | Direction RGS3 (203823_at) | Direction RGS5 (209070_s_at) | Direction RGS12 (242079_at) | Direction RHOQ (212122_at) | Direction SEC24A (212902_at) | Direction SEMA3A (206805_at) | Direction SETDB2 (235339_at) | Direction SGK1 (201739_at) | Direction SH3RF3 (228461_at) | Direction SHOX (207570_at) | Direction SLC6A15 (232263_at) | Direction SLC11A2 (237106_at) | Direction SLC20A1 (230494_at) | Direction SLC43A3 (210692_s_at) | Direction SLFN11 (226743_at) | Direction SLIT2 (209897_s_at) | Direction SNHG12 (223774_at) | Direction SOCS2 (203373_at) | Direction SPON1 (209437_s_at) | Direction SPON1 (213993_at) | Direction SQSTM1 (213112_s_at) | Direction ST3GAL1 (208322_s_at) | Direction ST3GAL1 (225033_at) | Direction STK17B (205214_at) | Direction SULF1 (212344_at) | Direction TAF1A (206613_s_at) | Direction TAGLN (205547_s_at) | Direction TBC1D1 (212350_at) | Direction TBC1D1 (227945_at) | Direction TGM2 (201042_at) | Direction THBS1 (201108_s_at) | Direction THBS1 (239336_at) | Direction THRAP3 (242163_at) | Direction TMEM38B (222735_at) | Direction TMEM38B (222736_s_at) | Direction TMEM39A (218615_s_at) | Direction TMEM39A (222690_s_at) | Direction TMTC1 (226322_at) | Direction TMTC1 (226931_at) | Direction TNC (216005_at) | Direction TNFAIP6 (206026_s_at) | Direction TNIP3 (220655_at) | Direction TRPA1 (217590_s_at) | Direction TRPC4 (224220_x_at) | Direction UBE2B (239163_at)
